PubChem BioAssay AID1918998 (Molecular Pharmacology Branch, DTP, NCI, 2023)

System: 521955-158-R2-J5-PDC complex spheroid growth
Assay: Anticancer human tumor 521955-158-R2-J5-PDC patient-derived pancreatic carcinoma cell line growth inhibition [AhR]
Conditions: for IC50: curve of first compound; for viability, T/C: stronger effect = lower value
Outline: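 Agents were dosed in half-log steps down from roughly clinical Cmax, or from 10 microM where Cmax was unknown, alone and with AhR antagonists. Read-out: percent test/control growth of tumor spheroids containing HUVEC and MSC stromal cells.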

[1] = second compound 0.1 µM, first compound 0.0316 µM
[2] = second compound 0.1 µM, first compound 0.1 µM
[3] = second compound 0.1 µM, first compound 0.316 µM
[4] = second compound 0.1 µM, first compound 1 µM
[5] = second compound 0.1 µM, first compound 3.16 µM
[6] = second compound 0.1 µM, first compound 10 µM
[7] = second compound 0.316 µM, first compound 0.0316 µM
[8] = second compound 0.316 µM, first compound 0.1 µM
[9] = second compound 0.316 µM, first compound 0.316 µM
[10] = second compound 0.316 µM, first compound 1 µM
[11] = second compound 0.316 µM, first compound 3.16 µM
[12] = second compound 0.316 µM, first compound 10 µM
[13] = second compound 1 µM, first compound 0.0316 µM
[14] = second compound 1 µM, first compound 0.1 µM
[15] = second compound 1 µM, first compound 0.316 µM
[16] = second compound 1 µM, first compound 1 µM
[17] = second compound 1 µM, first compound 3.16 µM
[18] = second compound 1 µM, first compound 10 µM
[19] = second compound 3.16 µM, first compound 0.0316 µM
[20] = second compound 3.16 µM, first compound 0.1 µM
[21] = second compound 3.16 µM, first compound 0.316 µM
[22] = second compound 3.16 µM, first compound 1 µM
[23] = second compound 3.16 µM, first compound 3.16 µM
[24] = second compound 3.16 µM, first compound 10 µM
[25] = second compound 10 µM, first compound 0.0316 µM
[26] = second compound 10 µM, first compound 0.1 µM
[27] = second compound 10 µM, first compound 0.316 µM
[28] = second compound 10 µM, first compound 1 µM
[29] = second compound 10 µM, first compound 3.16 µM
[30] = second compound 10 µM, first compound 10 µM
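For viability, T/C in this document: spheroids mix tumor cells with HUVEC endothelium and human MSC stroma; luminescence taken as viability surrogate after a week of drug exposure.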

`COc1cc(C2c3cc4c(cc3C(OC3OC5COC(C)OC5C(O)C3O)C3COC(=O)C23)OCO4)cc(OC)c1O` (stereo not given) + Cc1cncc(-c2nc(NCCc3c[nH]c4ccccc34)c3ncn(C(C)C)c3n2)c1 was tested. Which IC50 (second compound 0.1 µM) did it give?
Its IC50 is 1.08 µM.

What about the IC50 (second compound 0.316 µM) of the same compound?
The IC50 was 1.01 µM.

And the IC50 (second compound 1 µM)?
The IC50 was 0.98 µM.

And the IC50 (second compound 3.16 µM)?
The IC50 was 1.05 µM.

And the IC50 (second compound 10 µM)?
The IC50 was 1.81 µM.

And the viability, T/C [1]?
The viability, T/C was 102%.

What about the viability, T/C [2] of the same compound?
The viability, T/C was 107%.

And the viability, T/C [3]?
The viability, T/C was 85%.

And the viability, T/C [4]?
Its viability, T/C is 52.6%.

What about the viability, T/C [5] of the same compound?
Its viability, T/C is 29%.

And the viability, T/C [6]?
Its viability, T/C is 25.8%.

And the viability, T/C [7]?
The viability, T/C was 107%.

What about the viability, T/C [8] of the same compound?
Its viability, T/C is 101%.

And the viability, T/C [9]?
Its viability, T/C is 93.2%.

What about the viability, T/C [10] of the same compound?
Its viability, T/C is 49.1%.

What about the viability, T/C [11] of the same compound?
The viability, T/C was 27.4%.

And the viability, T/C [12]?
Its viability, T/C is 19.2%.

What about the viability, T/C [13] of the same compound?
Its viability, T/C is 106%.

And the viability, T/C [14]?
The viability, T/C was 111%.

And the viability, T/C [15]?
Its viability, T/C is 86.5%.

And the viability, T/C [16]?
The viability, T/C was 50.2%.

What about the viability, T/C [17] of the same compound?
Its viability, T/C is 27.9%.

And the viability, T/C [18]?
The viability, T/C was 23.6%.

And the viability, T/C [19]?
Its viability, T/C is 112%.

And the viability, T/C [20]?
The viability, T/C was 126%.

And the viability, T/C [21]?
Its viability, T/C is 118%.

What about the viability, T/C [22] of the same compound?
Its viability, T/C is 50.9%.

And the viability, T/C [23]?
The viability, T/C was 34.4%.

And the viability, T/C [24]?
The viability, T/C was 26.2%.

What about the viability, T/C [25] of the same compound?
Its viability, T/C is 179%.

And the viability, T/C [26]?
The viability, T/C was 126%.

And the viability, T/C [27]?
The viability, T/C was 118%.

What about the viability, T/C [28] of the same compound?
The viability, T/C was 56.9%.

What about the viability, T/C [29] of the same compound?
Its viability, T/C is 31.6%.

And the viability, T/C [30]?
Its viability, T/C is 25.1%.

Which IC50 (second compound 0.1 µM) does the source give for `COc1cccc2c1C(=O)c1c(O)c3c(c(O)c1C2=O)CC(O)(C(=O)CO)CC3OC1CC(N)C(O)C(C)O1` (stereo not given) + Cc1cncc(-c2nc(NCCc3c[nH]c4ccccc34)c3ncn(C(C)C)c3n2)c1 here?
Its IC50 is < 0.0316 µM.

What about the IC50 (second compound 0.316 µM) of the same compound?
Its IC50 is < 0.0316 µM.

What about the IC50 (second compound 1 µM) of the same compound?
The IC50 was < 0.0316 µM.

And the IC50 (second compound 3.16 µM)?
Its IC50 is 0.0726 µM.

And the IC50 (second compound 10 µM)?
The IC50 was 0.108 µM.

What about the viability, T/C [1] of the same compound?
Its viability, T/C is 53.6%.

And the viability, T/C [2]?
Its viability, T/C is 35.6%.

And the viability, T/C [3]?
The viability, T/C was 36.2%.

And the viability, T/C [4]?
The viability, T/C was 2.01%.

And the viability, T/C [5]?
The viability, T/C was 6.72%.

And the viability, T/C [6]?
Its viability, T/C is 11.6%.

What about the viability, T/C [7] of the same compound?
The viability, T/C was 49%.

What about the viability, T/C [8] of the same compound?
The viability, T/C was 35%.

What about the viability, T/C [9] of the same compound?
Its viability, T/C is 39.2%.

What about the viability, T/C [10] of the same compound?
Its viability, T/C is 0.95%.

And the viability, T/C [11]?
The viability, T/C was 6.23%.

And the viability, T/C [12]?
Its viability, T/C is 14.8%.

What about the viability, T/C [13] of the same compound?
The viability, T/C was 51.2%.

What about the viability, T/C [14] of the same compound?
Its viability, T/C is 30.6%.

What about the viability, T/C [15] of the same compound?
Its viability, T/C is 46.8%.

And the viability, T/C [16]?
Its viability, T/C is 1.72%.

What about the viability, T/C [17] of the same compound?
The viability, T/C was 5.39%.

What about the viability, T/C [18] of the same compound?
Its viability, T/C is 16.6%.

And the viability, T/C [19]?
The viability, T/C was 64.2%.

And the viability, T/C [20]?
The viability, T/C was 37.3%.

What about the viability, T/C [21] of the same compound?
The viability, T/C was 41.3%.

What about the viability, T/C [22] of the same compound?
The viability, T/C was 2.7%.

What about the viability, T/C [23] of the same compound?
Its viability, T/C is 8.4%.

And the viability, T/C [24]?
Its viability, T/C is 12.2%.

And the viability, T/C [25]?
Its viability, T/C is 64.2%.

What about the viability, T/C [26] of the same compound?
The viability, T/C was 48.4%.

What about the viability, T/C [27] of the same compound?
Its viability, T/C is 29%.

What about the viability, T/C [28] of the same compound?
Its viability, T/C is 0.47%.

And the viability, T/C [29]?
The viability, T/C was 3.33%.

And the viability, T/C [30]?
The viability, T/C was 9.06%.

Which IC50 (second compound 0.1 µM) does the source give for `Nc1ncn(C2CC(O)C(CO)O2)c(=O)n1` (stereo not given) + Cc1cncc(-c2nc(NCCc3c[nH]c4ccccc34)c3ncn(C(C)C)c3n2)c1 here?
Its IC50 is 0.936 µM.

And the IC50 (second compound 0.316 µM)?
Its IC50 is > 1 µM.

What about the IC50 (second compound 1 µM) of the same compound?
Its IC50 is > 1 µM.

What about the IC50 (second compound 3.16 µM) of the same compound?
The IC50 was > 1 µM.

And the IC50 (second compound 10 µM)?
The IC50 was > 1 µM.

What about the viability, T/C (second compound 0.1 µM, first compound 0.00316 µM) of the same compound?
Its viability, T/C is 92.4%.

What about the viability, T/C (second compound 0.1 µM, first compound 0.01 µM) of the same compound?
Its viability, T/C is 84.2%.

What about the viability, T/C [1] of the same compound?
The viability, T/C was 101%.

What about the viability, T/C [2] of the same compound?
Its viability, T/C is 95.4%.

What about the viability, T/C [3] of the same compound?
The viability, T/C was 79.6%.

What about the viability, T/C [4] of the same compound?
The viability, T/C was 48.2%.

And the viability, T/C (second compound 0.316 µM, first compound 0.00316 µM)?
The viability, T/C was 102%.

What about the viability, T/C (second compound 0.316 µM, first compound 0.01 µM) of the same compound?
Its viability, T/C is 99%.

What about the viability, T/C [7] of the same compound?
The viability, T/C was 96.4%.

What about the viability, T/C [8] of the same compound?
The viability, T/C was 82.7%.

What about the viability, T/C [9] of the same compound?
The viability, T/C was 63.9%.

What about the viability, T/C [10] of the same compound?
Its viability, T/C is 55.7%.

What about the viability, T/C (second compound 1 µM, first compound 0.00316 µM) of the same compound?
The viability, T/C was 112%.

And the viability, T/C (second compound 1 µM, first compound 0.01 µM)?
Its viability, T/C is 117%.

And the viability, T/C [13]?
The viability, T/C was 121%.

And the viability, T/C [14]?
The viability, T/C was 93.9%.

What about the viability, T/C [15] of the same compound?
Its viability, T/C is 82.3%.

And the viability, T/C [16]?
Its viability, T/C is 57.5%.

And the viability, T/C (second compound 3.16 µM, first compound 0.00316 µM)?
Its viability, T/C is 148%.

And the viability, T/C (second compound 3.16 µM, first compound 0.01 µM)?
Its viability, T/C is 123%.

What about the viability, T/C [19] of the same compound?
The viability, T/C was 145%.

What about the viability, T/C [20] of the same compound?
Its viability, T/C is 119%.

And the viability, T/C [21]?
Its viability, T/C is 115%.

What about the viability, T/C [22] of the same compound?
Its viability, T/C is 79.8%.

And the viability, T/C (second compound 10 µM, first compound 0.00316 µM)?
The viability, T/C was 141%.

And the viability, T/C (second compound 10 µM, first compound 0.01 µM)?
The viability, T/C was 110%.

What about the viability, T/C [25] of the same compound?
The viability, T/C was 152%.

What about the viability, T/C [26] of the same compound?
The viability, T/C was 124%.

And the viability, T/C [27]?
Its viability, T/C is 135%.

What about the viability, T/C [28] of the same compound?
The viability, T/C was 76.1%.
